Literature values in patent US20250257300A1, “MICROTITER-PLATE-BASED HIGH THROUGHPUT PERFUSION BIOREACTOR” (THE GEORGE WASHINGTON UNIVERSITY, priority 2022, published 2025).

Test system: Pseudomonas aeruginosa biofilms
Settings: Pseudomonas aeruginosa biofilms growing on urinary catheters vs planktonic cells

SMILES: NC[C@H]1O[C@H](O[C@H]2[C@H](O)[C@@H](O[C@H]3O[C@H](CO)[C@@H](O)[C@H](N)[C@H]3O)[C@H](N)C[C@@H]2N)[C@H](N)C[C@@H]1O [tobramycin]
- resistance of biofilms to tobramycin relative to planktonic cells: 1000 times
